Data on twelve compounds can be found in US5708063A, “Photochromic compound” (Tokuyama Corporation, priority 1993, dated 1998).

Assay type in all cases: physicochemical
The nature of series [1]: Photochromic PMMA cast film: initial coloration density, maximum absorption wavelength and fatigue life in xenon fadeometer (Example 9).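 For Initial color density: initial color density is an absorbance value so the % unit is wrong.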 To be noted: PMMA cast film 0.1 mm; for λmax / Initial color density: xenon light; for Initial color density / T1/2: no stabilizer; for T1/2: time for color density to fall to half of initial value, xenon fadeometer. An excerpt: The thickness of the cast film was adjusted to 0.1 mm.
(§1) T1/2 is defined as the time required for the color density to decrease to half of its initial value when the film is exposed to the fadeometer.

Series [2] in a line: Fatigue life of fulgide/fulgimide and chromene compound in polymerized methacrylate plate (Example 15). As to conditions: 0.05 part. How it is done: (§2) […] The mixed solution was injected into a mold which was made of a glass plate and a gasket formed of an ethylene-vinyl acetate copolymer, and was heated to a temperature of 35° to 90° C. in an air oven over a period of 20 hours for polymerization. After the polymerization was over, the polymer was withdrawn from the glass plate of the mold.
(§3) The resulting polymerized plate was irradiated with sunlight for 10 minutes. On this occasion, a color tone of said plate was visually observed. In this polymerized plate, the fulgide or fulgimide compound and the chromene compound were measured for fatigue life in the same manner as in Example 9. Further, a color tone of the polymerized plate was visually observed in T1/2 (hrs.) of the fulgide or fulgimide compound.

The nature of series [3]: Visual color tone of polymerized plate under sunlight (Example 15). To be noted: 0.05 part. How it is done:
as §2, §3

A short description of series [4]: Fatigue life of photochromic PMMA cast film with ultraviolet stabilizer, xenon fadeometer (Examples 11-14). The method, then: One hundred parts by weight of benzene, 10 parts by weight of poly(methyl methacrylate), 0.2 part […] The solution was cast on a slide glass (11.2×3.7 cm) to form a cast film having a thickness of 0.1 mm.
The fatigue life of photochromic film was measured as in Example 9 by a xenon long-life fadeometer (FAL-25AX-HC made by Suga Testing Instrument Co., Ltd.).
Example 11 was repeated except that the fulgimide compound obtained in Example 2 was used instead of fulgimide compound used in Example 11.
Example 11 was repeated except that the fulgimide or fulgide compounds shown in Table 28 were used instead of the fulgimide compounds in Example 11, and Cyasorb UV1084 was used as the ultraviolet stabilizer.

The nature of series [5]: Durability of poly(allyl diglycol carbonate) lens impregnated with the compound in silicone oil, as in Example 9 (Example 10). Also noted: Initial color density: unit not given here. To be noted: silicone oil impregnation; for Initial color density: 1.0×10^-4 mole/g; for T1/2: xenon fadeometer. The method, then:
as §1
The solution was impregnated in the surface of a lens composed of poly(allyl diglycol carbonate) at 200° C. for 1 hour. The concentration of the solution was adjusted to 1.0×10^-4 mole/g.

The mark [6] stands for this setting: PMMA film, UV stabilizer Cyasorb UV1084, 0.2 part.

In series [1], `CNC(=O)CCC(=O)CCN1C(=O)C2=C(C3CC3SC)c3ccn(C)c3C3(C4CCC3(C)CC4)C2C1=O` (centres unmarked) [(15)] yielded a λmax of 613 nm, an Initial color density of 0.69% and a T1/2 of 65 h. Also, in series [2] (with chromene 5 (0.04 part)), the “T1/2 of fulgide or fulgimide compound” value came to 160 h. Moreover, in series [3] (with chromene 5 (0.04 part)), the “Color tone in T0” value is recorded as “green” and the “Color tone in T1/2” value was “light gray”.

In series [1], `COC(=O)C(C)N1C(=O)C2=C(C3CC3(C)C)c3ccoc3C3(C4CCC3(Cl)CC4)C2C1=O` (centres unmarked) [(12)] had a λmax of 581 nm, an Initial color density of 0.78% and a T1/2 of 77 h. Further, the T1/2 in series [4] (setting [6]) worked out at 13.3 days. For the same compound, the “T1/2 of fulgide or fulgimide compound” value in series [2] (with chromene 4 (0.08 part)) came to 184 h. For the same compound, in series [3] (with chromene 4 (0.08 part)), the “Color tone in T0” value is given as “gray” and the “Color tone in T1/2” value is listed as “gray”.

With `CCC(C(=O)C[N+](=O)[O-])N1C(=O)C2=C(C3CC3)c3cc(OC)cc(OC)c3C3(C4CC5CC(C4)CC3C5)C2C1=O` (centres unmarked) [(45)], in series [1], the λmax was found to be 579 nm, the Initial color density is listed as 0.54% and the T1/2 is 65 h. The compound also registered a T1/2 in series [4] (setting [6]) of 11 days. Further, the “T1/2 of fulgide or fulgimide compound” value in series [2] (with chromene 2 (0.03 part)) came out at 160 h. In series [3] (with chromene 2 (0.03 part)), the “Color tone in T0” value is given as “gray” and the “Color tone in T1/2” value is “light gray”.

Regarding `CC(=O)CN1C(=O)C2=C(C3CC3C)c3cc(-c4ccccc4)sc3C3(C4CCC3CC4)C2C1=O` (centres unmarked) [(10)], in series [1], the λmax is reported as 610 nm, the Initial color density turned out to be 0.83% and the T1/2 is 80 h. In series [5], this compound had a λmax of 615 nm, an Initial color density of 0.82 and a T1/2 of 85 h. Also, the “T1/2 of fulgide or fulgimide compound” value in series [2] (with chromene 3 (0.08 part)) turned out to be 190 h. For the same compound, in series [3] (with chromene 3 (0.08 part)), the “Color tone in T0” value was “green” and the “Color tone in T1/2” value is recorded as “bluish gray”.

Turning to `CCn1c2c(c3ccccc31)C(C1CC1C(=O)O)=C1C(=O)N(CC(=O)OCCC#N)C(=O)C1C21C2CC3CC(O)(C2)CC1(O)C3` (centres unmarked) [(44)], in series [1], the λmax turned out to be 576 nm, the Initial color density was determined as 0.75% and the T1/2 is 62 h. In series [2] (with chromene 3 (0.08 part)), the “T1/2 of fulgide or fulgimide compound” value came out at 154 h. Besides, in series [3] (with chromene 3 (0.08 part)), the “Color tone in T0” value is “gray” and the “Color tone in T1/2” value was “gray”.

Regarding `O=C1OC(=O)C2C1=C(C1CC1)c1c(sc3c1CCCC3)C21C2CCCC1CCC2` (centres unmarked) [(54)], in series [1], the λmax was 568 nm, the Initial color density is reported as 1.09% and the T1/2 was 52 h. Besides, in series [5], the λmax is on record as 573 nm, the Initial color density is reported as 0.99 and the T1/2 is 54 h. Besides, in series [2] (with chromene 2 (0.03 part)), the “T1/2 of fulgide or fulgimide compound” value is 134 h. Moreover, in series [3] (with chromene 2 (0.03 part)), the “Color tone in T0” value is on record as “gray” and the “Color tone in T1/2” value is “brown”.

In series [1], `CCCCC1CC1C1=C2C(=O)N(C(C)(C)C#N)C(=O)C2C2(c3c(OC)cc(OC)cc31)C1CCC2(CCCC)CC1` (centres unmarked) [(17)] returned a λmax of 568 nm, an Initial color density of 0.58% and a T1/2 of 58 h. This compound gave a T1/2 in series [4] (setting [6]) of 9.58 days. Besides, the “T1/2 of fulgide or fulgimide compound” value in series [2] (with chromene 5 (0.03 part)) was determined as 146 h. In series [3] (with chromene 5 (0.03 part)), the “Color tone in T0” value was “gray” and the “Color tone in T1/2” value is “gray”.

Regarding `NC1CC1C1=C2C(=O)N(COC(=O)Cc3cccc4ccccc34)C(=O)C2C2(c3c1ccn3-c1ccccc1)C1(O)CCC2(O)CC1` (centres unmarked) [(21)], in series [1], the λmax came out at 613 nm, the Initial color density was 0.78% and the T1/2 worked out at 71 h. Also, the “T1/2 of fulgide or fulgimide compound” value in series [2] (with chromene 2 (0.03 part)) came out at 172 h. For the same compound, in series [3] (with chromene 2 (0.03 part)), the “Color tone in T0” value was “green” and the “Color tone in T1/2” value is listed as “green”.

In series [1], `CCOC1CC1C1=C2C(=O)N(C(C#N)CC)C(=O)C2C2(c3sc(OC)c(C)c31)C1CC3CC(C1)CC2C3` (centres unmarked) [(36)] returned a λmax of 576 nm and a T1/2 of 88 h. In addition, in series [5], the λmax is recorded as 582 nm, the Initial color density is recorded as 0.77 and the T1/2 is 95 h. The “T1/2 of fulgide or fulgimide compound” value in series [2] (with chromene 2 (0.03 part)) came out at 206 h. In addition, in series [3] (with chromene 2 (0.03 part)), the “Color tone in T0” value was “gray” and the “Color tone in T1/2” value is recorded as “gray”.

In series [1], `O=C(CN1C(=O)C2=C(C3CC3)c3c(sc4c3CCCC4)C3(C4CC5CC(C4)CC3C5)C2C1=O)NCCCl` (centres unmarked) [(46)] yielded an Initial color density of 0.71% and a T1/2 of 59 h. Further, in series [2] (with chromene 5 (0.07 part)), the “T1/2 of fulgide or fulgimide compound” value stood at 148 h. In series [3] (with chromene 5 (0.07 part)), the “Color tone in T0” value was “amber” and the “Color tone in T1/2” value is given as “amber”.

As to `CCCC1CC1C1=C2C(=O)N(C(C)C(C)=O)C(=O)C2C2(c3oc(OC)cc31)C1CCCC2CCC1` (centres unmarked) [(30)], in series [1], the λmax turned out to be 569 nm, the Initial color density came out at 0.73% and the T1/2 came to 78 h. Besides, in series [5], the λmax was 571 nm, the Initial color density was 0.68 and the T1/2 was 85 h. In addition, the “T1/2 of fulgide or fulgimide compound” value in series [2] (with chromene 1 (0.03 part)) stood at 186 h. Besides, in series [3] (with chromene 1 (0.03 part)), the “Color tone in T0” value is “gray” and the “Color tone in T1/2” value was “gray”.

For the compound `COC(=O)CN1C(=O)C2=C(C3CC3)c3ccsc3C3(C4CCC3CC4)C2C1=O` (centres unmarked) [(1), 4-cyclopropyl-6,7-dihydrdo-N-methoxycarbonylmethylspirobenzo[5,6-b]thiophenedicarboxyimido-7,7'-bicyclo[2.2.1]heptane], the values for the λmax in series [1] and in series [5] were 549 nm and 554 nm, respectively. The results for the Initial color density in series [1] and in series [5] were 0.85% and 0.78, respectively. Besides, the T1/2 is 77 h in series [1]; 82 h in series [5]; 9.17 days in series [4] (Cyasorb UV1084, amount added 0.002, 1 part per 100 parts fulgimide); 12.2 days in series [4] (Cyasorb UV1084, amount added 0.1, 50 parts per 100 parts fulgimide); 13.8 days in series [4] (Cyasorb UV1084, amount added 0.8, 400 parts per 100 parts fulgimide); 15.3 days in series [4] (Cyasorb UV1084, amount added 20, 10000 parts per 100 parts fulgimide). Besides, the T1/2 is 11.8 days in series [4] (PMMA film, UV stabilizer Chimassorb 944, 0.2 part); 14 days in series [4] (PMMA film, UV stabilizer Cyasorb 3346, 0.2 part); 12.9 days in series [4] (setting [6]); 12.5 days in series [4] (PMMA film, UV stabilizer Irgastab 2002, 0.2 part); 13.5 days in series [4] (PMMA film, UV stabilizer Rylex NBC, 0.2 part); 12.6 days in series [4] (PMMA film, UV stabilizer Spinuvex A-36, 0.2 part). The T1/2 in series [4] (PMMA film, UV stabilizer Tinuvin 144, 0.2 part) came out at 12.9 days; in series [4] (PMMA film, UV stabilizer Tinuvin 622, 0.2 part), 13.6 days; in series [4] (PMMA film, UV stabilizer Tinuvin 765, 0.2 part) it was 13.5 days; in series [4] (PMMA film, UV stabilizer UV Chek AM101, 0.2 part), 12.3 days; in series [4] (PMMA film, UV stabilizer UV Chek AM105, 0.2 part), 11.3 days; in series [4] (Tinuvin 765, amount added 0.002, 1 part per 100 parts fulgimide), 8.88 days. The T1/2 in series [4] (Tinuvin 765, amount added 0.1, 50 parts per 100 parts fulgimide) was found to be 12.8 days; in series [4] (Tinuvin 765, amount added 0.8, 400 parts per 100 parts fulgimide) it was 14.2 days; in series [4] (Tinuvin 765, amount added 20, 10000 parts per 100 parts fulgimide), 15.6 days.
